Data reported in PMC12090182, “Repurposing of the RIPK1-Selective Benzo[1,4]oxazepin-4-one Scaffold for the Development of a Type III LIMK1/2 Inhibitor” (ACS Chemical Biology, 2025).

Tests used:
Test in all cases: scanMAX KINOMEscan (Eurofins)
Type in all cases: binding
[1] = target: AKT1 (Homo sapiens, UniProt P31749); details: 1000 nM, read-out: Percent Control
Excerpt: (§1) Supplement cb5c00097_si_002.xlsx, sheet "Table S6 (Eurofins Selectivity)" | column: Percent Control

[2] = target: CAMK2A (Homo sapiens, UniProt Q9UQM7); details: 1000 nM, read-out: Percent Control
Excerpt: as §1

[3] = target: CDK4-cyclinD1 (Homo sapiens, UniProt P11802); details: 1000 nM, read-out: Percent Control
Excerpt: as §1

[4] = target: CDK9 (Homo sapiens, UniProt P50750); details: 1000 nM, read-out: Percent Control
Excerpt: as §1

[5] = target: CSNK1E (Homo sapiens, UniProt P49674); details: read-out: Percent Control
Chain of CSNK1E (P49674 whole entry): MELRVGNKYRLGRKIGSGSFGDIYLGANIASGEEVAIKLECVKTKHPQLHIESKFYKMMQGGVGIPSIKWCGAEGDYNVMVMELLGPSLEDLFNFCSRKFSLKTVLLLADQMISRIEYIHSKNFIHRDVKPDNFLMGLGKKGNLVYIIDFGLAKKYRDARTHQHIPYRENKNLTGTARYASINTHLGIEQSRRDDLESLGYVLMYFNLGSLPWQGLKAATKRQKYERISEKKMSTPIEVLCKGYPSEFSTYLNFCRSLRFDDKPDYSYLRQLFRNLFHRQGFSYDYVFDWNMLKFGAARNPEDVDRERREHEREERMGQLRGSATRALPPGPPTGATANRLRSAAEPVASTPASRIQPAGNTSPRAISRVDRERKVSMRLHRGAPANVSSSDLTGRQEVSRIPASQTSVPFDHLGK
Excerpt: as §1

[6] = target: EPHA4 (Homo sapiens, UniProt P54764); details: read-out: Percent Control
Chain of EPHA4 (P54764 20-986): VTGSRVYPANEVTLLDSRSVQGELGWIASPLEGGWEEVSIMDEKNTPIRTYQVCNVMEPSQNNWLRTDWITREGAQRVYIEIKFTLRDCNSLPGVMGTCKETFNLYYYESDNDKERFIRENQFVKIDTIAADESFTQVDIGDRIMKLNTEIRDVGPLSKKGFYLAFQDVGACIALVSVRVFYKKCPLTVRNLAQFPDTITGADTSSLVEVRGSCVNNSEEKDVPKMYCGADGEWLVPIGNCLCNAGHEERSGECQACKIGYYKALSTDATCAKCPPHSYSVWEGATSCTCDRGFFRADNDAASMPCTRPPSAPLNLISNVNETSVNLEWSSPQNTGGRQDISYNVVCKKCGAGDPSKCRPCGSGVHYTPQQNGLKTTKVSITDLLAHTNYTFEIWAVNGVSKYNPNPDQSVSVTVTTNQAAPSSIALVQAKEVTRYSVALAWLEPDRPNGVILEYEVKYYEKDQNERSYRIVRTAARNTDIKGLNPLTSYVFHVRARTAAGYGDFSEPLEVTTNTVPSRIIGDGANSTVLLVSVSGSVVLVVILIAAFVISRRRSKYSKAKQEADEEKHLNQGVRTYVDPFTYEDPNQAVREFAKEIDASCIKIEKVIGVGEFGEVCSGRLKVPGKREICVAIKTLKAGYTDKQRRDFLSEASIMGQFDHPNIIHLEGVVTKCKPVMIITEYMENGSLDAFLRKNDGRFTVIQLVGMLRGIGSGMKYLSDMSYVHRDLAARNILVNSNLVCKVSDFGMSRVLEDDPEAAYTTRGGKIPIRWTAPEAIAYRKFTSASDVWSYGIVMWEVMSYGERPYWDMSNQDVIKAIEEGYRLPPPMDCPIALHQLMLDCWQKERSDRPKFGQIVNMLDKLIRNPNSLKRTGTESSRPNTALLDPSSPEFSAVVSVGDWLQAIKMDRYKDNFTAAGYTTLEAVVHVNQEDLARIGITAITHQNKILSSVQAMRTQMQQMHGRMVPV
Excerpt: as §1

[7] = target: EPHA7 (Homo sapiens, UniProt Q15375); details: read-out: Percent Control
Chain of EPHA7 (Q15375 28-998): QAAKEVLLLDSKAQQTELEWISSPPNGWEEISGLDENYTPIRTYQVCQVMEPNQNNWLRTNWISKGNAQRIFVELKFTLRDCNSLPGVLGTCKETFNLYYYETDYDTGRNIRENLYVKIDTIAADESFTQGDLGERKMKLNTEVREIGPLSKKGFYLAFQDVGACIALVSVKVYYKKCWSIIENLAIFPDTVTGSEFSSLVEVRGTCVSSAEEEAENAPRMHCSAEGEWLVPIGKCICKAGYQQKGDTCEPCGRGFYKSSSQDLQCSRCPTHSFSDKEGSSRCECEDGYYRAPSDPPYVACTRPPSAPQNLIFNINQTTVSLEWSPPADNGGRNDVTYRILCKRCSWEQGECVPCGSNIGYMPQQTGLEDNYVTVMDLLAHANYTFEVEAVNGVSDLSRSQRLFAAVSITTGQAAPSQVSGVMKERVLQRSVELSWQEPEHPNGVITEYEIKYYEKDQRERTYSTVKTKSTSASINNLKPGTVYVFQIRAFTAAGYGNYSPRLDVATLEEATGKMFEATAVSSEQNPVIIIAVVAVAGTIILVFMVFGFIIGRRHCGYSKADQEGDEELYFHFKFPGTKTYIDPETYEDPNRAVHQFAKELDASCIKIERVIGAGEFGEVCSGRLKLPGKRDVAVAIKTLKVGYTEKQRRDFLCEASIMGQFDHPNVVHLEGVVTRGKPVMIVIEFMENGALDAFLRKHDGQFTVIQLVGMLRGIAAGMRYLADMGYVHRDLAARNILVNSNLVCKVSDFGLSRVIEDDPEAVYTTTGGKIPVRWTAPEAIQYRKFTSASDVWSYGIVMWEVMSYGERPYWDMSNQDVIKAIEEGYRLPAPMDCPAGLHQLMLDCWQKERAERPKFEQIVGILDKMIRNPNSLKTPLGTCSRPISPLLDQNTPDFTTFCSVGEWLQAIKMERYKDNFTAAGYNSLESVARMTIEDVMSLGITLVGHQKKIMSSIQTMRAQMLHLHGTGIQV
Excerpt: as §1

[8] = target: MEK1 (Homo sapiens, UniProt Q02750); details: compound concentration 100 nM; Entrez MAP2K1; read-out: Percent Control
Excerpt: as §1

[9] = target: MKK7 (Homo sapiens, UniProt O14733); details: read-out: Percent Control
Chain of MKK7 (O14733 whole entry): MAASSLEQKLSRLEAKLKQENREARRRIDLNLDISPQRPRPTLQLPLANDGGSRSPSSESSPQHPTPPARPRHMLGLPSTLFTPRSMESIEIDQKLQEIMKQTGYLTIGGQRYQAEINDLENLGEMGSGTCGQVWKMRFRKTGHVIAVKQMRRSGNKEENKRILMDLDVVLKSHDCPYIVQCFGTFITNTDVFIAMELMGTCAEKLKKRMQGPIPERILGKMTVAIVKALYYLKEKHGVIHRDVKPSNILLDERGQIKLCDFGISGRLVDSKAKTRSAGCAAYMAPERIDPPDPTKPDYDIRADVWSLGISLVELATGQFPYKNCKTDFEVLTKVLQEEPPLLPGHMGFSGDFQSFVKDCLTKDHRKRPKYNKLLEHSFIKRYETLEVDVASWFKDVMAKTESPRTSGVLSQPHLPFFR
Excerpt: as §1

[10] = target: MRCKB (Homo sapiens, UniProt Q9Y5S2); details: compound concentration 100 nM; Entrez CDC42BPB; read-out: Percent Control
Chain of MRCKB (Q9Y5S2 whole entry): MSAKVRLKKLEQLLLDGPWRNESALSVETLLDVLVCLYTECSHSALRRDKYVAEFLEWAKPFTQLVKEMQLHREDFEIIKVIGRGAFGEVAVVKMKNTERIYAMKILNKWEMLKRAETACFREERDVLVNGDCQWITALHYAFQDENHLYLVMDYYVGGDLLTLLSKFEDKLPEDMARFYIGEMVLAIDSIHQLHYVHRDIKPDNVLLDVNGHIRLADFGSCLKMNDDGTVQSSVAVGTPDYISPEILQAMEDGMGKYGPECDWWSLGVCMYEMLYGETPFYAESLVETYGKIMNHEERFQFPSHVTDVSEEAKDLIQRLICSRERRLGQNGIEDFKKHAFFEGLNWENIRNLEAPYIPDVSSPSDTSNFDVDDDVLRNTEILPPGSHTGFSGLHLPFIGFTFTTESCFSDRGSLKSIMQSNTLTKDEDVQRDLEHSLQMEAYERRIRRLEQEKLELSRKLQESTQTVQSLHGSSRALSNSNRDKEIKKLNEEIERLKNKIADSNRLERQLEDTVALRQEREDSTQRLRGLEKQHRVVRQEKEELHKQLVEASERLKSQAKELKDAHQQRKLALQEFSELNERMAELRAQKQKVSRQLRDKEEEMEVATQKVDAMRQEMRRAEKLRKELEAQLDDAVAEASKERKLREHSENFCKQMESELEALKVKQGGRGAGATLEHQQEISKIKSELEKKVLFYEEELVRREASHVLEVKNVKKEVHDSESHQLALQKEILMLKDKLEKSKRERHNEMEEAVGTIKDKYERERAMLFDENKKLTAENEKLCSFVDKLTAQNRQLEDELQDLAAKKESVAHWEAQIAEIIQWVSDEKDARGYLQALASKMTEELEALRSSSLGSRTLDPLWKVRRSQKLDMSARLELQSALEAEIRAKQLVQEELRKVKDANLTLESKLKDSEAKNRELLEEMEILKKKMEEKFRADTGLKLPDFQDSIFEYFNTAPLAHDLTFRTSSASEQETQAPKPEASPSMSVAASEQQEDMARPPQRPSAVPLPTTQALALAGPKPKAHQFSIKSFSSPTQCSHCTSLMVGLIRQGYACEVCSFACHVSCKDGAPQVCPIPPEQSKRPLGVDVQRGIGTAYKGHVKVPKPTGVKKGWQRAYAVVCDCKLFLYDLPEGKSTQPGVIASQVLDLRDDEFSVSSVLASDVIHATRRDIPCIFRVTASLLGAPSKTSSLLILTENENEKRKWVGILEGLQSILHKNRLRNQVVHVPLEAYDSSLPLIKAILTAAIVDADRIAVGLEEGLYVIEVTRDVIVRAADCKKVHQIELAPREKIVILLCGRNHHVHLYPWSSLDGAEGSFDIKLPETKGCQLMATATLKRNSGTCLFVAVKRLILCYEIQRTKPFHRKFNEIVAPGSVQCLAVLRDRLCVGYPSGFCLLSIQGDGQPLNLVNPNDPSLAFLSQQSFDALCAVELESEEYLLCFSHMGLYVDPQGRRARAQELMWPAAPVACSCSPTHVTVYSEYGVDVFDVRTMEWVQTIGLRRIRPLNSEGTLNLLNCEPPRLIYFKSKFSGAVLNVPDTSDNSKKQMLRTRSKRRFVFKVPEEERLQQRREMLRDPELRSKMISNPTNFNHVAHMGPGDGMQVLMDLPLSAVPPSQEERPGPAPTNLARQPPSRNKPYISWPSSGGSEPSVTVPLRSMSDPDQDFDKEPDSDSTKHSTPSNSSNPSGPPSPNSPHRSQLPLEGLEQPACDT
Excerpt: as §1

[11] = target: MST4 (Homo sapiens, UniProt Q9P289); details: 1000 nM, read-out: Percent Control
Excerpt: as §1

[12] = target: MYO3B (Homo sapiens, UniProt Q8WXR4); details: 1000 nM, read-out: Percent Control
Excerpt: as §1

[13] = target: PAK3 (Homo sapiens, UniProt O75914); details: 1000 nM, read-out: Percent Control
Excerpt: as §1

[14] = target: PAK6 (Homo sapiens, UniProt Q9NQU5); details: compound concentration 100 nM; Entrez PAK6; read-out: Percent Control
Excerpt: as §1

[15] = target: PCTK1 (Homo sapiens, UniProt Q00536); details: compound concentration 100 nM; Entrez CDK16; read-out: Percent Control
Excerpt: as §1

[16] = target: PFTK1 (Homo sapiens, UniProt O94921); details: 1000 nM, read-out: Percent Control
Excerpt: as §1

[17] = target: PIK3CB (Homo sapiens, UniProt P42338); details: 1000 nM, read-out: Percent Control
Excerpt: as §1

[18] = target: PIM1 (Homo sapiens, UniProt P11309); details: 1000 nM, read-out: Percent Control
Excerpt: as §1

[19] = target: PKAC-alpha (Homo sapiens, UniProt P17612); details: compound concentration 100 nM; Entrez PRKACA; read-out: Percent Control
Excerpt: as §1

[20] = target: PKMYT1 (Homo sapiens, UniProt Q99640); details: 1000 nM, read-out: Percent Control
Excerpt: as §1

[21] = target: PLK2 (Homo sapiens, UniProt Q9NYY3); details: compound concentration 100 nM; Entrez PLK2; read-out: Percent Control
Excerpt: as §1

[22] = target: RIOK2 (Homo sapiens, UniProt Q9BVS4); details: compound concentration 100 nM; Entrez RIOK2; read-out: Percent Control
Excerpt: as §1

[23] = target: RIOK3 (Homo sapiens, UniProt O14730); details: 1000 nM, read-out: Percent Control
Excerpt: as §1

[24] = target: RPS6KA5(Kin.Dom.2-C-terminal) (Homo sapiens, UniProt O75582); details: compound concentration 100 nM; Entrez RPS6KA5; read-out: Percent Control
Chain of RPS6KA5(Kin.Dom.2-C-terminal) (O75582 426-687): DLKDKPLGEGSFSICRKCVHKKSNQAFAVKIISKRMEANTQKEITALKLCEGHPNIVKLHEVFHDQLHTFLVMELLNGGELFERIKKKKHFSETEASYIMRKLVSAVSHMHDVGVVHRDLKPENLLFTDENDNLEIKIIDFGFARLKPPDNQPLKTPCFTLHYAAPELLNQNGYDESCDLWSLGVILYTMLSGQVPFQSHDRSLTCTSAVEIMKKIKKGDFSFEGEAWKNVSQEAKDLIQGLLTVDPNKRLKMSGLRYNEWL
Excerpt: as §1

[25] = target: RSK2(Kin.Dom.1-N-terminal) (Homo sapiens, UniProt P51812); details: compound concentration 100 nM; Entrez RPS6KA3; read-out: Percent Control
Chain of RSK2(Kin.Dom.1-N-terminal) (P51812 68-397): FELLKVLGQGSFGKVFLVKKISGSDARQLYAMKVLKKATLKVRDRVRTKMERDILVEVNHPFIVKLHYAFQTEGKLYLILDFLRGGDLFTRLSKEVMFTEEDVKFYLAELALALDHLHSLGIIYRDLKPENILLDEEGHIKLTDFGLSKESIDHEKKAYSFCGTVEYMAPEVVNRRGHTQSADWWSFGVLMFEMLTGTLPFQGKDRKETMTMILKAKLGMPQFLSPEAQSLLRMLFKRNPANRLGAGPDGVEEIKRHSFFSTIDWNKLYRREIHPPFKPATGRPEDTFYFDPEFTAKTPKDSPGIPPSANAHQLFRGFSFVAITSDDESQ
Excerpt: as §1

[26] = target: SBK1 (Homo sapiens, UniProt Q52WX2); details: compound concentration 100 nM; Entrez SBK1; read-out: Percent Control
Excerpt: as §1

[27] = target: SNARK (Homo sapiens, UniProt Q9H093); details: 1000 nM, read-out: Percent Control
Excerpt: as §1

[28] = target: SNRK (Homo sapiens, UniProt Q9NRH2); details: compound concentration 100 nM; Entrez SNRK; read-out: Percent Control
Excerpt: as §1

[29] = target: SYK (Homo sapiens, UniProt P43405); details: 1000 nM, read-out: Percent Control
Excerpt: as §1

[30] = target: TBK1 (Homo sapiens, UniProt Q9UHD2); details: 1000 nM, read-out: Percent Control
Excerpt: as §1

[31] = target: TEC (Homo sapiens, UniProt P42680); details: compound concentration 100 nM; Entrez TEC; read-out: Percent Control
Excerpt: as §1

[32] = target: TGFBR1 (Homo sapiens, UniProt P36897); details: compound concentration 100 nM; Entrez TGFBR1; read-out: Percent Control
Excerpt: as §1

[33] = target: TYK2(JH1domain-catalytic) (Homo sapiens, UniProt P29597); details: 1000 nM, read-out: Percent Control
Excerpt: as §1

[34] = target: TYRO3 (Homo sapiens, UniProt Q06418); details: 1000 nM, read-out: Percent Control
Excerpt: as §1

[35] = target: YANK1 (Homo sapiens, UniProt Q8WU08); details: 1000 nM, read-out: Percent Control
Excerpt: as §1

CN1C(=O)[C@@H](N2CCc3c(nn(Cc4ccccc4)c3C(N)=O)C2=O)COc2cc(Cl)ccc21 [Compound 10, (S)-2-benzyl-6-(8-chloro-5-methyl-4-oxo-2,3,4,5-tetrahydrobenzo[b][1,4]oxazepin-3-yl)-7-oxo-4,5,6,7-tetrahydro-2H-pyrazolo[3,4-c]pyridine-3-carboxamide]
remaining binding at 1 µM [1]: 91%
remaining binding at 1 µM [2]: 90%
remaining binding at 1 µM [3]: 72%
remaining binding at 1 µM [4]: 85%
remaining binding at 1 µM ([5]; 1000 nM): 100%
remaining binding at 0.1 µM ([5]; compound concentration 100 nM, Entrez CSNK1E): 91%
remaining binding at 1 µM ([6]; 1000 nM): 100%
remaining binding at 0.1 µM ([6]; compound concentration 100 nM, Entrez EPHA4): 99%
remaining binding at 1 µM ([7]; 1000 nM): 100%
remaining binding at 0.1 µM ([7]; compound concentration 100 nM, Entrez EPHA7): 91%
remaining binding at 0.1 µM [8]: 91%
remaining binding at 1 µM ([9]; 1000 nM): 99%
remaining binding at 0.1 µM ([9]; compound concentration 100 nM, Entrez MAP2K7): 91%
remaining binding at 0.1 µM [10]: 95%
remaining binding at 1 µM [11]: 92%
remaining binding at 1 µM [12]: 96%
remaining binding at 1 µM [13]: 74%
remaining binding at 0.1 µM [14]: 93%
remaining binding at 0.1 µM [15]: 100%
remaining binding at 1 µM [16]: 79%
remaining binding at 1 µM [17]: 88%
remaining binding at 1 µM [18]: 78%
remaining binding at 0.1 µM [19]: 90%
remaining binding at 1 µM [20]: 95%
remaining binding at 0.1 µM [21]: 100%
remaining binding at 0.1 µM [22]: 94%
remaining binding at 1 µM [23]: 77%
remaining binding at 0.1 µM [24]: 95%
remaining binding at 0.1 µM [25]: 100%
remaining binding at 0.1 µM [26]: 68%
remaining binding at 1 µM [27]: 92%
remaining binding at 0.1 µM [28]: 99%
remaining binding at 1 µM [29]: 95%
remaining binding at 1 µM [30]: 94%
remaining binding at 0.1 µM [31]: 86%
remaining binding at 0.1 µM [32]: 100%
remaining binding at 1 µM [33]: 74%
remaining binding at 1 µM [34]: 97%
remaining binding at 1 µM [35]: 90%
